One may read the IC50 as the midpoint of a concentration-inhibition curve.

In one test the target is T1, GPX4 (Mus musculus, UniProt O70325).
T1 construct: tissue Charles River Laboratories; host or cells: skin of BALB/c mice
The experiment in a line: Electrophoretic gel mobility shift of GPX4 in skin of treated mice (target engagement). The note with it: skin of BALB/c mice exposed to mitomycin C; 24 hr treatment. Format: in vivo. As to the method:
An electrophoretic gel mobility shift assay of GPX4 was applied to determine the level of target engagement of compound 32 as a direct biomarker in tissues. For example, target engagement of compound 32 was assessed in the skin of mice exposed to mitomycin C, a potent inducer of cellular senescence. Following 24 hr treatment with compound 32, the skin of treated BALB/c mice (Charles River Laboratories) was collected and lysed by IGEPAL CA-630 and sodium dodecyl sulfate (SDS) in the presence of a protease inhibitor cocktail (4693132001, Roche) and benzonase (E1014, Sigma-Aldrich). The soluble protein fraction was isolated and heat-denatured in the presence of dithiothreitol (DTT). Proteins were electrophoretically separated using a Bis-Tris protein gel with 12% polyacrylamide concentration. Following the transfer of proteins to a PVDF membrane, the membrane was probed with an anti-GPX4 monoclonal antibody (ab125066, Abcam) and anti-beta-Actin (4970, Cell Signaling Technology), followed by an anti-rabbit IgG HRP conjugated antibody (31460, ThermoFisher). Chemiluminescent following HRP substrate addition (34580, ThermoFisher) was detected by the ChemiDoc XRS+System (BioRad).

For a further test, the system named is senescent A549 cells. The test can be described thus: Senescence assay: viability of senescent A549 cells. Format: cell-based. To be noted: Homo sapiens, 24-72 hours incubation, viability by CellTiter-Glo or XTT, read-out: Absolute IC50 average A549_SEN IC50. The procedure, abridged:
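A549 and HEPG2 cells made senescent by sublethal chemotherapy (bleomycin, gemcitabine, doxorubicin or 5-fluorouridine) plus recovery, verified by low EdU and high SA-β-Gal. Ten-point duplicate dosing for 24-72 h; viability by CellTiter-Glo or XTT versus untreated cells; absolute IC50 from four-parameter Hill fit.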
In general terms: In ATP-based viability assays light output follows the ATP content of the culture.

The test system of test [1] is senescent normal human dermal fibroblasts. The test can be described thus: Rescue of compound-induced cell death by ferrostatin-1 in senescent fibroblasts. Format: cell-based. To be noted: compounds at 1.11 μM, ferrostatin-1 at 0.375 and 6 μM; 24 hours; CellTiter-Glo. An excerpt: Cell death induced by ferroptosis-inducing agents can be characterized by rescuing the cellular response with radical trapping agents that prevent the accumulation of phospholipid hydroperoxides (Stockwell et al., Cell Chem Biol 2020 27 (4): 365-375). As such, ferrostatin-1 was identified as a potent inhibitor of ferroptosis for which a free radical trapping mechanism had been reported (Skouta et al., J Am Chem Soc 2014 136 (12): 4551-6; Zika et al., ACS Cent Sci. 2017 3 (3): 232-243; and Miotto et al., Redox Biol. 2020; 101328). To determine whether compounds 18 and 32 induce ferroptosis in senescent cells, normal human dermal fibroblasts were induced to undergo senescence by treatment with a sublethal concentration of chemotherapy (bleomycin sulfate), followed by a rest period without chemotherapy similarly to previous reports (Aoshiba et al., 2003 3:436-43). Cells were maintained in DMEM media (high glucose, 4 mM L-glutamine, no sodium pyruvate) supplemented with 10% heat-inactivated fetal bovine serum in a humidified incubator at 37° C. with 5% carbon dioxide and 5% oxygen. Cellular senescence was qualified by reduced EdU (5-ethynyl-2′-deoxyuridine) incorporation and increased SA-β-Gal (senescence-associated beta-galactosidase) staining compared to proliferating untreated cells. Senescent fibroblasts were plated into 96-well plates at a density of 10,000 cells per well. The next day, ferrostatin-1 was diluted in cell medium to reach a final concentration of 0.375 and 6 μM and was added to cells. Approximately 30 minutes after the addition of ferrostatin-1, compounds 18 and 32 at 1.11 μM, or the peptidyl transfer inhibitor puromycin at 10 μM were added to cells. Cells were incubated with the compounds for 24 hours, at which point viability was quantified using the CellTiter-Glo assay (Promega). The viability for treated cells was determined relative to untreated control cells.

In another test the test system is A549 cells. The test can be described thus: Lipid peroxidation assay by flow cytometry (BODIPY 581/591 C11). Format: cell-based, human. To be noted: 0.02, 0.2 and 2 μm, 18.5 hours. On the procedure:
Inhibition of the cellular activity of GPX4 can be estimated by changes in lipid peroxidation levels that can be detected by the oxidation of BODIPY 581/591 C11, a ratiometric fluorescent indicator reacting with free radicals produced during membrane peroxidation (Drummen et al., Free Radic Biol Med 2002 33 (4): 473-90; and Martinez et al., Methods Mol Biol 2020 2018:125-130). For a lipid peroxidation assay by flow cytometry, A549 cells were seeded at 333,000 cells per well in 12-well plates. On the following day, culture media was replaced with 1 mL media containing either DMSO or compound 32 (0.02, 0.2 and 2 μm), and cultures were incubated at 37° C. for 18.5 hours. Thirty minutes before the end of the incubation period, 2 μm BODIPY 581/591 C11 (D3861, Invitrogen) was added to cells. Following cell collection by trypsinization, cells were subjected to flow cytometry analysis (BD FACSAria), and gated for the live cell population, which was analyzed for fluorescence signal associated with the oxidized state of BODIPY 581/591 C11. The results are illustrated in FIG. 4.
Background: Flow cytometry measures light scatter and fluorescence of single cells or particles in a stream.

T1 sequence (O70325 whole entry): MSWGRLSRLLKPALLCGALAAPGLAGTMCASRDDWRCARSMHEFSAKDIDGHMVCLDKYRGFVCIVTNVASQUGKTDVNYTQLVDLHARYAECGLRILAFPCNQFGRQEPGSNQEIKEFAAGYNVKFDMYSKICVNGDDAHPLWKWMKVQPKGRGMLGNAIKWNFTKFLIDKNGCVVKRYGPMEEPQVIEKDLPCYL

Turning to `C#CC(F)(F)[C@]1(O)CC[C@H]2[C@@H]3CCC4=CC(=NNC(=O)NC5CC5)CCC4=C3[C@H](c3ccc(C4CC4)cc3)C[C@@]21C` [Compound 32, N-cyclopropyl-2-((8S,11S,13S,14S,17S)-11-(4-cyclopropylphenyl)-17-(1,1-difluoroprop-2-yn-1-yl)-17-hydroxy-13-methyl-1,2,6,7,8,11,12,13,14,15,16,17-dodecahydro-3H-cyclopenta[a]phenanthren-3-ylidene)hydrazine-1-carboxamide], the “GPX4 band shift in skin (target engagement)” value on GPX4 is “slower migrating band for GPX4 was observed”. Also, the IC50 in the test with senescent A549 cells is 0.1 to 10 nM. Besides, the “inhibition by ferrostatin-1 of compound-induced cell death” value in test [1] was “potently inhibits cell death induced by compounds 18 and 32”. Further, the “cellular lipid peroxidation (oxidized BODIPY 581/591 C11 signal)” value in the test with A549 cells was “induced markers of cellular lipid peroxidation”.
